Results on 11 molecules are retold here after patent publication US11981658B2, “Substituted aminopyridine compounds as EGFR inhibitors” (YUHAN CORPORATION, priority 2021, dated 2024).

One assay has as its target EGFR L858R/T790M/C797S (Homo sapiens, UniProt P00533, C797S/L858R/T790M). As to the kind of experiment: Biochemical EGFR kinase inhibition assay (Lance Ultra TR-FRET), triple mutant L858R/T790M/C797S. The essentials:
(§1)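 Step 1: compound in kinase buffer, 0.003–10 μM. Step 2: kinase reaction 1 h at room temperature. Step 4: TR-FRET read at 615/665 nm; IC50 calculated.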
(In TR-FRET formats the signal depends on donor and acceptor labels being close together.)

Another assay has as its target EGFR wildtype (WT) (Homo sapiens, UniProt P00533). As to the kind of experiment: Biochemical EGFR kinase inhibition assay (Lance Ultra TR-FRET), wildtype. The essentials: as §1
The next assay has as its target EGFR Del19/T790M/C797S (Homo sapiens, UniProt P00533, C797S/DEL746-750/T790M). Kind of assay: Biochemical EGFR kinase inhibition assay (Lance Ultra TR-FRET), triple mutant del19/T790M/C797S. The essentials:
as §1

Another assay deals with EGFR Del19/C797S (Homo sapiens, UniProt P00533, C797S/DEL746-750). Kind of assay: Biochemical EGFR kinase inhibition assay (Lance Ultra TR-FRET), double mutant del19/C797S. The essentials:
as §1

A further assay concerns the target EGFR L858R/C797S (Homo sapiens, UniProt P00533, C797S/L858R). As to the kind of experiment: Biochemical EGFR kinase inhibition assay (Lance Ultra TR-FRET), double mutant L858R/C797S. The essentials:
as §1

Setting [1] is: ATP at Km, read-out: IC50 L858R/T790M/C797S (nM), Km ATP.
Where [2] appears, read: IC50 L858R/T790M/C797S (nM), 100 μM ATP.
[3] abbreviates: ATP at Km, read-out: IC50 WT (nM), Km ATP.
Setting [4] is: ATP at Km, read-out: IC50 Del19/T790M/C797S (nM), Km ATP.
Setting [5] is: IC50 Del19/T790M/C797S (nM), 100 μM ATP.
The mark [6] stands for this setting: ATP at Km, read-out: IC50 Del19/C797S (nM), Km ATP.
[7] abbreviates: IC50 Del19/C797S (nM), 100 μM ATP.
The mark [8] stands for this setting: ATP at Km, read-out: IC50 L858R/C797S (nM), Km ATP.
Where [9] appears, read: IC50 L858R/C797S (nM), 100 μM ATP.
Where [10] appears, read: Km ATP, read-out: IC50 L858R/T790M/C797S (nM) Km ATP.
Setting [11] is: Km ATP, read-out: IC50 WT (nM) Km ATP.
[12] abbreviates: Km ATP, read-out: IC50 Del19/T790M/C797S (nM) Km ATP.
Where [13] appears, read: Km ATP, read-out: IC50 Del19/C797S (nM) Km ATP.
The mark [14] stands for this setting: Km ATP, read-out: IC50 L858R/C797S (nM) Km ATP.

Structures are written as SMILES. Structures can show the parent of a compound that is named as a salt. Where two headings read alike, the source gives them in different places.

EGFR Del19/T790M/C797S, sequence (P00533 with tags, fused parts or gaps DEL746-750/T790M/C797S): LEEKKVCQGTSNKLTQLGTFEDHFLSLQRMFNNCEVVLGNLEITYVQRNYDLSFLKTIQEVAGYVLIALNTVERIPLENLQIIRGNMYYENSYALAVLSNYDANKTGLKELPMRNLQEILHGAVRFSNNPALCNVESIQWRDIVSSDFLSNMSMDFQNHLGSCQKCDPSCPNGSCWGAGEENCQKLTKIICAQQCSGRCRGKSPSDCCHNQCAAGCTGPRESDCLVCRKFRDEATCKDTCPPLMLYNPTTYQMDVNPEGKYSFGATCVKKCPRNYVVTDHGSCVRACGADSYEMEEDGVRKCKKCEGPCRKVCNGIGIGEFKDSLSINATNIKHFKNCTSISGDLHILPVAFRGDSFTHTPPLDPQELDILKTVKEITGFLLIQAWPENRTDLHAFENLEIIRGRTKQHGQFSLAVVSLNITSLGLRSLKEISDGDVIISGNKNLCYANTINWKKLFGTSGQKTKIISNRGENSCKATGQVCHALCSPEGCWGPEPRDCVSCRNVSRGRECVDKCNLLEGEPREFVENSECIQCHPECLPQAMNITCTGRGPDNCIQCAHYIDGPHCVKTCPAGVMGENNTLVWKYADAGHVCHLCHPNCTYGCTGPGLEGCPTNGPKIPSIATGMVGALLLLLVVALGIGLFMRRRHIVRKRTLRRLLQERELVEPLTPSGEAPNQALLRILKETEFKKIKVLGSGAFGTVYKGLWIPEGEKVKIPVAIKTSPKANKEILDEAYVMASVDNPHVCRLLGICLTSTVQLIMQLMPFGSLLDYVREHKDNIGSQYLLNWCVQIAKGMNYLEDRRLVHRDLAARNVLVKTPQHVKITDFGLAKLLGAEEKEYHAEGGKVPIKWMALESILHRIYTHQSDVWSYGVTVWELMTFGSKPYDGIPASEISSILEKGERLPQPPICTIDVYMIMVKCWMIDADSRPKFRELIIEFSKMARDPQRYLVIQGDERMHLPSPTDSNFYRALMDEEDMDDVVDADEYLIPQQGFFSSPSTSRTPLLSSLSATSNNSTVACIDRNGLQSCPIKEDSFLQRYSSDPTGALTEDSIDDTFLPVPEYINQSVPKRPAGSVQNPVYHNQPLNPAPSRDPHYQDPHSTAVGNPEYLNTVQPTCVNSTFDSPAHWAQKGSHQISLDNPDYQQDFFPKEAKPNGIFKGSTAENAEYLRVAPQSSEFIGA
EGFR L858R/T790M/C797S, sequence (P00533 25-1210 T790M/C797S/L858R): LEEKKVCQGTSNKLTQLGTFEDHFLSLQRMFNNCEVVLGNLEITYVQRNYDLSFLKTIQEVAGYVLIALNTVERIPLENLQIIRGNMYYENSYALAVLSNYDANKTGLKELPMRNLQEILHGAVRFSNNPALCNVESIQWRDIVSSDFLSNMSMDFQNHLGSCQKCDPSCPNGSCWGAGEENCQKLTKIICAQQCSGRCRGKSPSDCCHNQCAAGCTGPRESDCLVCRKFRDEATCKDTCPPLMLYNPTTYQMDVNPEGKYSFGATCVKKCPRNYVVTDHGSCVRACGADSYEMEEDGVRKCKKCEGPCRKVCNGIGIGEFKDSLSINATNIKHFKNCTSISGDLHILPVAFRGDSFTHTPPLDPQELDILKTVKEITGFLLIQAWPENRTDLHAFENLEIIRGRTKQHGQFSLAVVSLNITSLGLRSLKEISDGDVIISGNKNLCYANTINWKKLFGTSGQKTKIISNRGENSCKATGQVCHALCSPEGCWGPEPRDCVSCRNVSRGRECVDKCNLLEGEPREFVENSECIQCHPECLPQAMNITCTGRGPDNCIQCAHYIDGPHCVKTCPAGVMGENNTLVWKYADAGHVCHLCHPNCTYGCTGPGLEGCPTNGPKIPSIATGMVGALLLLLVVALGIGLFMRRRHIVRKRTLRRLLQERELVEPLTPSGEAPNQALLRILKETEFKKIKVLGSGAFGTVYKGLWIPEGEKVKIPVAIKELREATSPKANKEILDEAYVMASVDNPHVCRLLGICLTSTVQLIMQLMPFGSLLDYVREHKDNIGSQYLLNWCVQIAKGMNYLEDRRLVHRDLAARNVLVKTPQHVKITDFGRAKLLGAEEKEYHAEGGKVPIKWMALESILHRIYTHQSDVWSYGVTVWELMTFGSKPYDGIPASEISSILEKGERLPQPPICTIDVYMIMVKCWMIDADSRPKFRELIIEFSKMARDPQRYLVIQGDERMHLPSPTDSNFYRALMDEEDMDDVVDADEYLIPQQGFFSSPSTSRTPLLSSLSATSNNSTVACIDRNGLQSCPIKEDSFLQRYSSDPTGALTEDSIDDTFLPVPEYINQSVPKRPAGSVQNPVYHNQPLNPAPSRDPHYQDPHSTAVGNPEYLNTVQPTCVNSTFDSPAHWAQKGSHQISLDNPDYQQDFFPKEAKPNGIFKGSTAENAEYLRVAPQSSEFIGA
EGFR wildtype (WT), sequence (P00533 25-1210): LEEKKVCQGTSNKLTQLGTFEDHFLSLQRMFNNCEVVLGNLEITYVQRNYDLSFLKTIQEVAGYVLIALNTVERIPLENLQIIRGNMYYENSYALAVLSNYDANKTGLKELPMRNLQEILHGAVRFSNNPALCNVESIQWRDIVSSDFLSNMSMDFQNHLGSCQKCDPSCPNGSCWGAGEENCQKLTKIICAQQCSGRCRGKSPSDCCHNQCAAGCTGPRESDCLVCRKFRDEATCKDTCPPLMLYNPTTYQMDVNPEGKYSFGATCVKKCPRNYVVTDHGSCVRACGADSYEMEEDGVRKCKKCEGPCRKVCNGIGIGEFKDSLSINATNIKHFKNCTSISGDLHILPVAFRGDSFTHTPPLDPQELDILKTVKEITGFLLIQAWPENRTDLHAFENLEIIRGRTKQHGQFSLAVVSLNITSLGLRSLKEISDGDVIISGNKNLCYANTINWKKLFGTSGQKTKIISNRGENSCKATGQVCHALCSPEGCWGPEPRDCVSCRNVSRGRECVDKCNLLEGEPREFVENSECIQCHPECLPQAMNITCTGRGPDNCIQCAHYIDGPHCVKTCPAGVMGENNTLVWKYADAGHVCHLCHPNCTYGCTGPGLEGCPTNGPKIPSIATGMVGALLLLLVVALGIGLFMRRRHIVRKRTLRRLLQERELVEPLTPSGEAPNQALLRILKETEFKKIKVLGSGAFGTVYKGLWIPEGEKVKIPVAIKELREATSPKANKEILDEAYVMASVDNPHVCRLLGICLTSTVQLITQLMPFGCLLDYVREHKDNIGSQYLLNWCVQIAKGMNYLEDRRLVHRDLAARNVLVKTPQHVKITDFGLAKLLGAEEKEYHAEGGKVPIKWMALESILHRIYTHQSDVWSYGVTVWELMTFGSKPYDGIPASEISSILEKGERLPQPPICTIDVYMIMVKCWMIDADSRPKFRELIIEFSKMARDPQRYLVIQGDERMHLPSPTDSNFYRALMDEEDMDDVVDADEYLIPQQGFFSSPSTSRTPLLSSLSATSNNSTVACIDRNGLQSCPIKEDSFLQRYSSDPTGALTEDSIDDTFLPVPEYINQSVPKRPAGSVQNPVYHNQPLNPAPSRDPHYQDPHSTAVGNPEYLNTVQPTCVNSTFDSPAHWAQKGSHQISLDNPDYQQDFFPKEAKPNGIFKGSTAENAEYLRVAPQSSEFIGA
EGFR L858R/C797S, sequence (P00533 25-1210 C797S/L858R): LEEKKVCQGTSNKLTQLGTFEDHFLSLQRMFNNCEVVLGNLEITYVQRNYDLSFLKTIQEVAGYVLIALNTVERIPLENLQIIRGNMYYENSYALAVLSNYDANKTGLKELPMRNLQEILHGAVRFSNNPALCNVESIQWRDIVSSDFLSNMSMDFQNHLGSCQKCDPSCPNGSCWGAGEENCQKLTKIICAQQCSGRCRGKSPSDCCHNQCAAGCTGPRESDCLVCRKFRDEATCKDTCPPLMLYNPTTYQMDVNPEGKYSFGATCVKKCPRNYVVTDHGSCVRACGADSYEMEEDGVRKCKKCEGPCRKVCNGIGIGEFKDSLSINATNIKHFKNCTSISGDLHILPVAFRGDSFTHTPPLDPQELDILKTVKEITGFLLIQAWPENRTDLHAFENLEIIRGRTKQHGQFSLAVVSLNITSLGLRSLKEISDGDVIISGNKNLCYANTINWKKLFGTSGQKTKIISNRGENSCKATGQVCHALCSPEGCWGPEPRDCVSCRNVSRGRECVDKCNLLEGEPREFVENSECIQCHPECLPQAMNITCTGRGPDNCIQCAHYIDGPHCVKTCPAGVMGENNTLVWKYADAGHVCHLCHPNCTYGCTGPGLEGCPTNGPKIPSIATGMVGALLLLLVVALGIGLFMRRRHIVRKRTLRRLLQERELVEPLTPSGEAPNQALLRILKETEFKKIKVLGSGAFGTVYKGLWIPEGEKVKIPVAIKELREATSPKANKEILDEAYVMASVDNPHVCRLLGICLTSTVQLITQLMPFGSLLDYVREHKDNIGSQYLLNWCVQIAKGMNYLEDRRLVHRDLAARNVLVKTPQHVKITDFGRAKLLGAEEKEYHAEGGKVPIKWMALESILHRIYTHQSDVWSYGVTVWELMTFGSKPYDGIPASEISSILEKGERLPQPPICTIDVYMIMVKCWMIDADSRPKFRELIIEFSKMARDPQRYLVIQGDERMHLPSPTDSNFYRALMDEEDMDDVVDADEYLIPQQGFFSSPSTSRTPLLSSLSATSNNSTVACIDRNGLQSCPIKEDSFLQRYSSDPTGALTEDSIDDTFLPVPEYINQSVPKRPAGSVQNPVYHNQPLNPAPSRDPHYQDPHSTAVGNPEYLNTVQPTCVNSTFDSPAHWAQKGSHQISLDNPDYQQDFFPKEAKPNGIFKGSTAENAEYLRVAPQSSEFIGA

For the molecule `CN(C)CCC1CCN(c2cc(Nc3ccnc(-c4cnn(S(=O)(=O)C5CC5)c4)n3)ncc2C#Cc2cnn(C)c2)CC1` [Example 294, 2-(1-(Cyclopropylsulfonyl)-1H-pyrazol-4-yl)-N-(4-(4-(2-(dimethylamino)ethyl)piperidin-1-yl)-5-((1-methyl-1H-pyrazol-4-yl)ethynyl)pyridin-2-yl)pyrimidin-4-amine formate], the IC50 was 0.1 nM on EGFR L858R/T790M/C797S (setting [1]); 0.1 nM on EGFR L858R/T790M/C797S (setting [2]); 0.6 nM on EGFR wildtype (WT) (setting [3]); 351 nM at EGFR wildtype (WT) (IC50 WT (nM), 100 μM ATP); 0.1 nM on EGFR Del19/T790M/C797S (setting [4]); 0.1 nM at EGFR Del19/T790M/C797S (setting [5]). The IC50 at EGFR Del19/C797S (setting [6]) turned out to be 0.2 nM; on EGFR Del19/C797S (setting [7]) it was 0.2 nM; at EGFR L858R/C797S (setting [8]), 0.3 nM; against EGFR L858R/C797S (setting [9]), 1.6 nM.
Regarding `CC1(CO)CCN(c2cc(Nc3ccnc(-c4ccc(F)nc4)n3)ncc2C#Cc2cnn(C(F)(F)F)c2)CC1` [Example 269, (1-(2-((2-(6-Fluoropyridin-3-yl)pyrimidin-4-yl)amino)-5-((1-(trifluoromethyl)-1H-pyrazol-4-yl)ethynyl)pyridin-4-yl)-4-methylpiperidin-4-yl)methanol], the IC50 against EGFR L858R/T790M/C797S (setting [2]) was 160 nM; at EGFR wildtype (WT) (setting [3]), greater than 10000 nM; at EGFR wildtype (WT) (IC50 WT (nM), 100 μM ATP) it was greater than 10000 nM; on EGFR Del19/T790M/C797S (setting [5]), 129 nM; on EGFR Del19/C797S (setting [7]) it was 1950 nM; against EGFR L858R/C797S (setting [9]), 1350 nM.
`O=C(N1CCC(C#Cc2cnc(Nc3ccnc(-c4cnn(S(=O)(=O)C5CC5)c4)n3)cc2NCC2CCC(CO)CC2)C1)C(F)(F)F` (stereo not shown) [Example 411, 1-(3-((6-((2-(1-(Cyclopropylsulfonyl)-1H-pyrazol-4-yl)pyrimidin-4-yl)amino)-4-((((1 r,4r)-4-(hydroxymethyl)cyclohexyl)methyl)amino)pyridin-3-yl)ethynyl)pyrrolidin-1-yl)-2,2,2-trifluoroethan-1-one]: the IC50 against EGFR L858R/T790M/C797S (setting [2]) is 35.9 nM; on EGFR wildtype (WT) (IC50 WT (nM), 100 μM ATP), greater than 10000 nM; at EGFR Del19/T790M/C797S (setting [5]) it was 7.3 nM; against EGFR Del19/C797S (setting [7]), 59.8 nM; at EGFR L858R/C797S (setting [9]) it was 979 nM.
With `Cn1cc(C#Cc2cnc(Nc3ccnc(-c4cnn(S(=O)(=O)C5CC5)c4)n3)cc2N2CCC3(CCNC3=O)CC2)cn1` [Example 79, 8-(2-((2-(1-(Cyclopropylsulfonyl)-1H-pyrazol-4-yl)pyrimidin-4-yl)amino)-5-((1-methyl-1H-pyrazol-4-yl)ethynyl)pyridin-4-yl)-2,8-diazaspiro[4.5]decan-1-one], the IC50 at EGFR L858R/T790M/C797S (setting [2]) turned out to be 0.8 nM; at EGFR L858R/T790M/C797S (setting [10]), 0.1 nM; against EGFR wildtype (WT) (IC50 WT (nM), 100 μM ATP) it was 7190 nM; at EGFR wildtype (WT) (setting [11]), 6.1 nM; against EGFR Del19/T790M/C797S (setting [5]), 0.3 nM; at EGFR Del19/T790M/C797S (setting [12]), 0.2 nM. Moreover, the IC50 against EGFR Del19/C797S (setting [7]) was 1.3 nM; on EGFR Del19/C797S (setting [13]), 1.3 nM; against EGFR L858R/C797S (setting [9]) it was 17.8 nM; at EGFR L858R/C797S (setting [14]), 1.2 nM.
Regarding `CC1(CO)CCN(c2cc(Nc3ccnc(-c4cnn(S(=O)(=O)C5CC5)c4)n3)ncc2C#CC2CC(C(C)(C)O)C2)CC1` (stereo not shown) [Example 266, 2-(3-((6-((2-(1-(Cyclopropylsulfonyl)-1H-pyrazol-4-yl)pyrimidin-4-yl)amino)-4-(4-(hydroxymethyl)-4-methylpiperidin-1-yl)pyridin-3-yl)ethynyl)cyclobutyl)propan-2-ol], the IC50 at EGFR L858R/T790M/C797S (setting [1]) came to 0.4 nM; against EGFR L858R/T790M/C797S (setting [2]), 0.4 nM; at EGFR wildtype (WT) (setting [3]), 7.2 nM; at EGFR wildtype (WT) (IC50 WT (nM), 100 μM ATP), 1230 nM; at EGFR Del19/T790M/C797S (setting [4]), 1 nM; against EGFR Del19/T790M/C797S (setting [5]), 0.8 nM. Besides, the IC50 at EGFR Del19/C797S (setting [6]) was 1.1 nM; at EGFR Del19/C797S (setting [7]), 2.1 nM; at EGFR L858R/C797S (setting [8]) it was 0.9 nM; against EGFR L858R/C797S (setting [9]), 5.4 nM.
Consider `CN(C)C[C@H]1CC[C@H](COc2cc(Nc3ccnc(-c4cnn(S(=O)(=O)C5CC5)c4)n3)ncc2C#Cc2cnn(CCF)c2)CC1` [Example 61, 2-(1-(Cyclopropylsulfonyl)-1H-pyrazol-4-yl)-N-(4-(((1r,4r)-4-((dimethylamino)methyl)cyclohexyl)methoxy)-5-((1-(2-fluoroethyl)-1H-pyrazol-4-yl)ethynyl)pyridin-2-yl)pyrimidin-4-amine], for which the IC50 on EGFR L858R/T790M/C797S (setting [10]) came out at 0.1 nM; at EGFR wildtype (WT) (setting [11]), 4.2 nM; at EGFR Del19/T790M/C797S (setting [12]) it was 0.5 nM; at EGFR Del19/C797S (setting [13]), 0.5 nM; at EGFR L858R/C797S (setting [14]) it was 3.1 nM.
With `Cn1cnc(C#Cc2cnc(Nc3ccnc(-c4cnn(S(=O)(=O)C5CC5)c4)n3)cc2N[C@@H]2CC[C@H](O)C2)c1` [Example 223, (1S,3R)-3-((2-((2-(1-(Cyclopropylsulfonyl)-1H-pyrazol-4-yl)pyrimidin-4-yl)amino)-5-((1-methyl-1H-imidazol-4-yl)ethynyl)pyridin-4-yl)amino)cyclopentan-1-ol], the IC50 against EGFR L858R/T790M/C797S (setting [2]) was 0.8 nM; against EGFR wildtype (WT) (IC50 WT (nM), 100 μM ATP), greater than 10000 nM; on EGFR Del19/T790M/C797S (setting [5]), 0.5 nM; against EGFR Del19/C797S (setting [7]) it was 6.7 nM; against EGFR L858R/C797S (setting [9]), 44.7 nM.
`CC1(O)CCN(c2cc(Nc3ccnc(-c4cnn(S(=O)(=O)C5CC5)c4)n3)ncc2C#CC2CC3CCC2O3)CC1` (stereo not shown) [Example 424, 1-(5-((7-Oxabicyclo[2.2.1]heptan-2-yl)ethynyl)-2-((2-(1-(cyclopropylsulfonyl)-1H-pyrazol-4-yl)pyrimidin-4-yl)amino)pyridin-4-yl)-4-methylpiperidin-4-o 1]: the IC50 amounted to 0.3 nM on EGFR L858R/T790M/C797S (setting [2]); 0.2 nM on EGFR L858R/T790M/C797S (Km ATP, read-out: IC50 L858R/T790M/C797S (nM), Km ATP); 5450 nM on EGFR wildtype (WT) (IC50 WT (nM), 100 μM ATP); 8.8 nM on EGFR wildtype (WT) (Km ATP, read-out: IC50 WT (nM), Km ATP); 0.2 nM against EGFR Del19/T790M/C797S (setting [5]); 0.3 nM at EGFR Del19/T790M/C797S (Km ATP, read-out: IC50 Del19/T790M/C797S (nM), Km ATP). Also, the IC50 at EGFR Del19/C797S (setting [7]) was 2.4 nM; at EGFR Del19/C797S (Km ATP, read-out: IC50 Del19/C797S (nM), Km ATP), 2 nM; at EGFR L858R/C797S (setting [9]) it was 47.7 nM; at EGFR L858R/C797S (Km ATP, read-out: IC50 L858R/C797S (nM), Km ATP) it was 1.9 nM.
Turning to `Cn1cnc(C#Cc2cnc(Nc3ccnc(-c4cnn(S(=O)(=O)C5CC5)c4)n3)cc2N2CCC(O)CC2)c1` [Example 213, 1-(2-((2-(1-(Cyclopropylsulfonyl)-1H-pyrazol-4-yl)pyrimidin-4-yl)amino)-5-((1-methyl-1H-imidazol-4-yl)ethynyl)pyridin-4-yl)piperidin-4-ol], the IC50 is 1.4 nM at EGFR L858R/T790M/C797S (setting [2]); greater than 10000 nM against EGFR wildtype (WT) (IC50 WT (nM), 100 μM ATP); 0.7 nM at EGFR Del19/T790M/C797S (setting [5]); 8.8 nM on EGFR Del19/C797S (setting [7]); 37.5 nM on EGFR L858R/C797S (setting [9]).
For `CN1CCN(Cc2ccc(C#Cc3cnc(Nc4ccnc(-c5cnn(S(=O)(=O)C6CC6)c5)n4)cc3NC[C@H]3CC[C@H](O)CC3)cc2)CC1` [Example 361, (1 r,4r)-4-(((2-((2-(1-(Cyclopropylsulfonyl)-1H-pyrazol-4-yl)pyrimidin-4-yl)amino)-5-((4-((4-methylpiperazin-1-yl)methyl)phenyl)ethynyl)pyridin-4-yl)amino)methyl)cyclohexan-1-ol], in that order: 1.5 nM, greater than 10000 nM, 0.7 nM, 4.3 nM and 468 nM.
With `Cn1cc(C#Cc2cnc(Nc3ccnc(-c4cnn(S(=O)(=O)C5CC5)c4)n3)cc2N2CCC(NCC3CC3)CC2)cn1` [Example 124, N-(4-(4-((Cyclopropylmethyl)amino)piperidin-1-yl)-5-((1-methyl-1H-pyrazol-4-yl)ethynyl)pyridin-2-yl)-2-(1-(cyclopropylsulfonyl)-1H-pyrazol-4-yl)pyrimidin-4-amine], the IC50 on EGFR L858R/T790M/C797S (setting [2]) is 2.6 nM; against EGFR wildtype (WT) (IC50 WT (nM), 100 μM ATP) it was greater than 10000 nM; at EGFR Del19/T790M/C797S (setting [5]), 3 nM; on EGFR Del19/C797S (setting [7]), 26.3 nM; against EGFR L858R/C797S (setting [9]) it was 154 nM.
